Data as given in patent publication US9169255B2, “Caffeinated compounds and compositions for treatment of amyloid diseases and synucleinopathies” (ProteoTech Inc, priority 2011, dated 2015).

Assays:
Assay type in all cases: biochemical
[1] = molecular target: T1, Aβ 1-42 (Homo sapiens, UniProt P05067); assay: Thioflavin T fluorometry, inhibition of β-sheet formation of non-fibrillar Aβ 1-42; parameters: pre-fibrillized human Aβ 1-42 (rPeptide); purchased rPeptide; settings: for Thioflavin T fluorometry-% Inhibition: 24 hours
T1 sequence (P05067 672-713 limits assumed): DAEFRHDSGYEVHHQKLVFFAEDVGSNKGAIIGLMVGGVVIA
Method: To test whether the compounds can inhibit β-sheet formation of Aβ, the same assay as described in Example 5 was utilized, but the Aβ was prepared so that it is in a non-fibrillar state at the start of the assay. To achieve this non-fibrillar state, lyophilized human Aβ 1-42 (rPeptide) was dissolved to 1 mg/mL (220 μM) using 2 mM NaOH and the pH was adjusted to 10.5 with small (μL) additions of 1M NaOH. The clear solution was then frozen, re-lyophilized, and dissolved in a buffer containing 9.5 mM phosphate, 137 mM sodium chloride and 2.7 mM potassium chloride (phosphate-buffered saline; PBS) to a concentration of 2 mg/mL (440 μM) Aβ. […] The reactions containing Aβ+test compounds (or Aβ+PBS as a control for Aβ aggregation) were then incubated for 24 hours, the incubation mixtures were diluted 1:20 to 0.05 mg/mL Aβ and 50 μL of each diluted incubation mixture was transferred into a 96-well microtiter plate containing 150 μL of distilled water and 50 μL of a Thioflavin T solution (i.e. 500 μM Thioflavin T in 250 mM phosphate buffer, pH 6.8). The final concentration of Aβ was 2.2 μM and the concentration of Thioflavin T reagent was 100 μM in 50 mM phosphate buffer, pH 6.8. The fluorescence was read at 485 nm (444 nm excitation wavelength) using an ELISA plate fluorometer after subtraction with PBS buffer alone or compound alone, as blank.

[2] = molecular target: T2, α-synuclein fibrils (Homo sapiens, UniProt P37840); assay: Thioflavin T fluorometry, disruption of pre-formed α-synuclein fibrils; settings: 2-day incubation
T2 construct: purchased rPeptide, Bogart, Calif
Method: In this set of studies, the efficacy of certain compounds provided herein to cause a disassembly/disruption/disaggregation of pre-formed fibrils of Parkinson's disease (i.e. consisting of α-synuclein fibrils) was analyzed. For the studies described below in Parts A and B, 69 μM of α-synuclein (rPeptide, Bogart, Calif.) was first incubated at 37° C. for 4 days in 20 mM sodium acetate buffer at pH 4 with circular shaking (1,300 rpm) to cause α-synuclein aggregation and fibril formation.
In one study, Thioflavin T fluorometry was used to determine the effects of the compounds on α-synuclein fibrils. […] In this assay Thioflavin T binds specifically to fibrillar protein, and this binding produces a fluorescence enhancement at 485 nm that is directly proportional to the amount of fibrils formed.
Following initial α-synuclein fibrilization as described above, the α-synuclein (6.9 μM) mixture was then incubated at 37° C. for 2 days with shaking (200 rpm), either alone, or in the presence of one of the compounds (at test compound:α-synuclein molar ratios of 10:1, 1:1, 0.1:1, and 0.01:1) in phosphate-buffered saline, pH 7.4+0.02% sodium azide. Following 2 days of co-incubation, 50 μl (5 μg) of each incubation mixture was transferred into a 96-well microtiter plate containing 150 μl of distilled water and 50 μl of a Thioflavin T solution (i.e. 500 μM Thioflavin T in 250 mM phosphate buffer, pH 6.8). The final concentration of Thioflavin T reagent is 100 μM in 50 mM phosphate buffer, pH 6.8. The fluorescence was read at 485 nm (444 nm excitation wavelength) using an ELISA plate fluorometer. Subtraction of the signal obtained from a diluted reaction (blank) containing buffer alone or compound alone at a concentration equivalent to that of its corresponding α-synuclein-containing reaction was used to quantitate the amount of Thioflavin T fluorescence in each α-synuclein-containing reaction that is proportional to the protein fibril content in that reaction.

[3] = molecular target: T1, Aβ 1-42; assay: Circular dichroism (CD) spectroscopy, inhibition of β-sheet formation of Aβ; settings: for magnitude of the change of the ellipticity minimum at 218 nm relative to Aβ alone: 24 hours of incubation, at appropriate concentrations; for Circular Dichroism Spectroscopy -% Inhibition: 24 hours
Method: For this purpose, the Aβ reactions that were used in the Thioflavin T fluorometry assay (Part A in this Example) were assessed at 24 hours of aggregation. Aβ alone was also assessed by CD spectral analysis at t=0, prior to aggregation, (t=0, unfolded reference control). After 24 hours, reactions were diluted 20-fold in PBS and a CD spectrum for each reaction was acquired on a Jasco J-810 spectropolarimeter using a 0.1 cm path length cell. All spectra were recorded with a step size of 0.1 nm, a bandwidth of 1 nm, and an Aβ concentration of 0.05 mg/ml. The spectra were trimmed at the shortest wavelength that still provided a dynode voltage less than 600V. The trimmed spectra were then subjected to a data processing routine beginning with noise reduction by Fourier transform followed by subtraction of a blank spectrum (vehicle only without Aβ). These blank corrected spectra were then zeroed at 260 nm and the units converted from millidegrees to specific ellipticity.
Percent β-sheet was determined from processed spectra using the ellipticity minimum value at approximately 218 nm and referencing to a scale normalized to nearly fully folded and unfolded reference values, consistent with previous reports (Ramirez-Alvarado et al., J. Mol. Biol., 273:898-912, 1997; Andersen et al., J. Am. Chem. Soc., 121:9879-9880, 1999). The fully folded reference value was found by performing the described calculation on the spectrum of Aβ fibrillized for 24 hours (complete fibrillization), and assigning this difference the arbitrary value of 100% β-sheet. The unfolded reference was provided by the spectrum from the same sample at the initial time point (t=0) and ascribing the difference found here the arbitrary value of 0% β-sheet. These percent β-sheet values were then used to provide the respective relative % inhibition of β-sheet induced by the compounds at given molar ratio of test compound:Aβ.

[4] = compound:peptide molar ratio 0.01:1
[5] = compound:peptide molar ratio 0.1:1
[6] = compound:peptide molar ratio 1:1
[7] = compound:peptide molar ratio 10:1

| Compound | Thioflavin T fluorometry-% Inhibition ([1]; compound:Aβ molar ratio 5:1) [%] | Thioflavin T fluorometry-% Inhibition ([1]; compound:Aβ molar ratio 10:1) [%] | Thioflavin T fluorometry-% Inhibition [2, 4] [%] | Thioflavin T fluorometry-% Inhibition [2, 5] [%] | Thioflavin T fluorometry-% Inhibition [2, 6] [%] | Thioflavin T fluorometry-% Inhibition [2, 7] [%] | inhibition of Aβ aggregation (Thioflavin T fluorometry) ([1]; concentrations tested 50:1, 10:1 and 1:1) | magnitude of the change of the ellipticity minimum at 218 nm relative to Aβ alone [3] | Thioflavin T fluorometry-% Inhibition ([1]; compound:Aβ molar ratio 1:1) [%] | Circular Dichroism Spectroscopy -% Inhibition ([3]; compound:Aβ molar ratio 0.5:1) [%] | Circular Dichroism Spectroscopy -% Inhibition ([3]; compound:Aβ molar ratio 1:1) [%] | Circular Dichroism Spectroscopy -% Inhibition ([3]; compound:Aβ molar ratio 5:1) [%] | Circular Dichroism Spectroscopy -% Inhibition ([3]; compound:Aβ molar ratio 10:1) [%] | inhibition of β-sheet formation in Aβ (CD) ([3]; test compound:Aβ molar ratios ≧5:1) |
| --- | --- | --- | --- | --- | --- | --- | --- | --- | --- | --- | --- | --- | --- | --- |
| 1,3-dimethyl-7-(3′,4′-dibenzyloxy)benzyl-8-(3′,4′-dihydroxyphenyl)xanthine [PD-154] | 0 | 33 | 7 | 10 | 25 | 43 |  |  |  |  |  |  |  |  |
| Cn1c(=O)c2c(ncn2C)n(C)c1=O [Caffeine, reference compound] |  |  |  |  |  |  | failed to inhibit | no effect |  |  |  |  |  |  |
| Cn1cnc2c1c(=O)n(Cc1ccc(O)c(O)c1)c(=O)n2Cc1ccc(O)c(O)c1 [PD-150, 7-Methyl-1,3-bis(3′,4′-dihydroxy)benzylxanthine] |  | 93 | 0 | 0 | 48 | 84 |  | reduced | 23 | 40 | 42 | 69 | 62 | at least 62% |
| Cn1c(=O)n(Cc2ccc(O)c(O)c2)c(=O)c2c1ncn2Cc1ccc(O)c(O)c1 [PD-151, 3-Methyl-1,7-bis(3′,4′-dihydroxybenzyl)xanthine] |  | 87 | 4 | 15 | 56 | 89 |  | reduced | 9 | 38 | 43 | 66 | 67 |  |
| Cn1c(=O)c2c(ncn2Cc2ccc(O)c(O)c2)n(Cc2ccc(O)c(O)c2)c1=O [PD-152] | 23 | 61 | 0 | 4 | 52 | 86 |  | reduced |  | 26 | 42 | 35 | 57 |  |
| Cn1c(=O)c2c(nc(-c3ccc(O)c(O)c3)n2C)n(C)c1=O [PD-153, 1,3,7-trimethyl-8-(3′,4′-dihydroxyoxyphenyl)xanthine] |  |  | 7 | 17 | 18 | 37 |  | reduced |  |  |  | 8 | 24 |  |
